From patent US10259810B2, “N-sulfonylated pyrazolo[3,4-b]pyridin-6-carboxamides and method of use” (AbbVie S.à.r.l., priority 2015, dated 2019)

How the values were obtained:
ΔF508-CFTR [1] = biological target: T1, ΔF508-CFTR (Homo sapiens, UniProt P13569, DEL508-508); experiment: CFTR cell surface levels using HRP-tagged ΔF508-CFTR expressing CFBE cells, in the presence of a co-corrector; type: cell-based; conditions: HRP-tagged ΔF508-CFTR CFBE cells, in the presence of 3 μM co-corrector; for EC50: read-out: EC50
T1 construct: host or cells: CFBE41o-, doxycycline-inducible
Procedure, shortened: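 Chemiluminescent read-out of surface HRP (15 min, dark) after PBS washes. Activity is normalized as 100×(sample−DMSO)/(3 μM co-corrector alone−DMSO).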

ΔF508-CFTR [2] = biological target: T1, ΔF508-CFTR; experiment: CFTR cell surface levels using HRP-tagged ΔF508-CFTR expressing CFBE cells, intrinsic corrector capacity; type: cell-based; design: % Activation: concentration or dose not given beside the values; conditions: HRP-tagged ΔF508-CFTR expressing CFBE41o- cells, compound alone (intrinsic corrector capacity), 20 hours at 33° C.; for EC50: read-out: EC50
Procedure, shortened: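 Read-out: chemiluminescent HRP activity of ECL4-HRP-tagged ΔF508-CFTR at the cell surface, 15 min substrate in dark. Normalized as 100×(sample−DMSO)/(positive control−DMSO).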

T1 sequence (P13569 with tags, fused parts or gaps DEL508-508): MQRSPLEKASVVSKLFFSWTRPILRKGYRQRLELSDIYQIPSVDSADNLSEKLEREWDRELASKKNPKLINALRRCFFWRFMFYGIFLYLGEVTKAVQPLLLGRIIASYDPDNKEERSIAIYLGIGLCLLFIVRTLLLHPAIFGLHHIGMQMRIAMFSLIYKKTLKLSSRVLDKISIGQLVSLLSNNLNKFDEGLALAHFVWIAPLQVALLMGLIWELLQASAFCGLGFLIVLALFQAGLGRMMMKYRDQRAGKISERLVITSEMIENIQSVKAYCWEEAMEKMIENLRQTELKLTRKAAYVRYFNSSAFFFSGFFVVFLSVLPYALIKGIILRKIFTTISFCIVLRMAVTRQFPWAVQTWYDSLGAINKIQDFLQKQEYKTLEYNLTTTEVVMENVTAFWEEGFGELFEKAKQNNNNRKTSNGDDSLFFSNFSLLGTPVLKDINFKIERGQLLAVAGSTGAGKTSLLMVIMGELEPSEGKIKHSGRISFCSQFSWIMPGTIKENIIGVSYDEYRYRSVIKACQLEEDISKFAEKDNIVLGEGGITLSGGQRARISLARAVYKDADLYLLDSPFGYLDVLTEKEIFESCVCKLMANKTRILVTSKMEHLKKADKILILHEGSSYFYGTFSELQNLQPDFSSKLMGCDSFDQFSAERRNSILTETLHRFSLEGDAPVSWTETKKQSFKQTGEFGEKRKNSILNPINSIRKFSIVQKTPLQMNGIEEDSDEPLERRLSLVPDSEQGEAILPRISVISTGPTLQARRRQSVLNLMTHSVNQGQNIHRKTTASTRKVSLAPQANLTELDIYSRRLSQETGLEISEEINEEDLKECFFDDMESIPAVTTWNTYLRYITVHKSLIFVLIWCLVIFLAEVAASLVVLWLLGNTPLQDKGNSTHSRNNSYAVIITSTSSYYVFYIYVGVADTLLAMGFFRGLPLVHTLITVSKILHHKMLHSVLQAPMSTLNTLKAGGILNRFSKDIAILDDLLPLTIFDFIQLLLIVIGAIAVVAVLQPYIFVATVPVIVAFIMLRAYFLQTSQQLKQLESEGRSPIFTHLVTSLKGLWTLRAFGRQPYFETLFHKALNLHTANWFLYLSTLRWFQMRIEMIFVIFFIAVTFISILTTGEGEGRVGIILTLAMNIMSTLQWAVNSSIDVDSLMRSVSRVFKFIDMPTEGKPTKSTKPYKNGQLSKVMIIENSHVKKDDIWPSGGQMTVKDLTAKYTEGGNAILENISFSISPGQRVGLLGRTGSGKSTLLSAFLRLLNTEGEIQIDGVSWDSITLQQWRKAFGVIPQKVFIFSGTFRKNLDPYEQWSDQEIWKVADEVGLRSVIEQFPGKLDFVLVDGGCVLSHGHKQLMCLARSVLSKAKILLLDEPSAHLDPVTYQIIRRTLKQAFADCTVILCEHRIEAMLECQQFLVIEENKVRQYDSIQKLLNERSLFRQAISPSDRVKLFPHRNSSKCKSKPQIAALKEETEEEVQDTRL

| SMILES | % Activation (ΔF508-CFTR [1]) | EC50 (ΔF508-CFTR [1]) | % Activation (ΔF508-CFTR [2]) | EC50 (ΔF508-CFTR [2]) |
| --- | --- | --- | --- | --- |
| COCC1CCN(c2cc(C(=O)NS(C)(=O)=O)nc3c2c(C(C)C)nn3-c2cccc(C)c2)CC1 [Compound 156, N-(methanesulfonyl)-4-[4-(methoxymethyl)piperidin-1-yl]-1-(3-methylphenyl)-3-(propan-2-yl)-1H-pyrazolo[3,4-b]pyridine-6-carboxamide] | 636.47% | 360 nM | 411% | 439 nM |
| Cc1nn(C2CCCCC2)c2nc(C(=O)NS(C)(=O)=O)cc(-c3ccc(N4CCOCC4)nc3)c12 [Compound 47, 1-cyclohexyl-N-(methanesulfonyl)-3-methyl-4-[6-(morpholin-4-yl)pyridin-3-yl]-1H-pyrazolo[3,4-b]pyridine-6-carboxamide] | 408.77% | 1600 nM | 169.73% | 1860 nM |
| COC1CCCN(c2cc(C(=O)NS(C)(=O)=O)nc3c2c(C(C)C)nn3-c2cccc(C)c2)C1 (stereo not shown) [Compound 162, N-(methanesulfonyl)-4-(3-methoxypiperidin-1-yl)-1-(3-methylphenyl)-3-(propan-2-yl)-1H-pyrazolo[3,4-b]pyridine-6-carboxamide] | 331.53% | 304 nM | 169% | 445 nM |
| CC(C)Oc1nn(C2CCCCC2)c2nc(C(=O)NS(=O)(=O)N(C)C)cc(-c3ccc(CN4CCCC4)cc3)c12 [Compound 444, 1-cyclohexyl-N-(dimethylsulfamoyl)-3-[(propan-2-yl)oxy]-4-{4-[(pyrrolidin-1-yl)methyl]phenyl}-1H-pyrazolo[3,4-b]pyridine-6-carboxamide] | 361.3% | 235 nM | 162.5% | 345 nM |
| CC(C)c1nn(-c2ccc(F)cc2)c2nc(C(=O)NS(C)(=O)=O)cc(N3CCN(CC(F)(F)F)CC3)c12 [Compound 266, 1-(4-fluorophenyl)-N-(methanesulfonyl)-3-(propan-2-yl)-4-[4-(2,2,2-trifluoroethyl)piperazin-1-yl]-1H-pyrazolo[3,4-b]pyridine-6-carboxamide] | 328.87% | 231 nM | 161.5% | 332 nM |
| COc1cc(F)cc(-n2nc(C)c3c(-c4c(F)cc(OC)cc4F)cc(C(=O)NS(C)(=O)=O)nc32)c1 [Compound 129, 4-(2,6-difluoro-4-methoxyphenyl)-1-(3-fluoro-5-methoxyphenyl)-N-(methanesulfonyl)-3-methyl-1H-pyrazolo[3,4-b]pyridine-6-carboxamide] | 307.3% | 790 nM | 187.5% | 1330 nM |
| CC(C)c1nn(-c2ccnc(N3CCOCC3)c2)c2nc(C(=O)NS(=O)(=O)N(C)C)cc(OCC3CCOCC3)c12 [Compound 489, N-(dimethylsulfamoyl)-1-[2-(morpholin-4-yl)pyridin-4-yl]-4-[(oxan-4-yl)methoxy]-3-(propan-2-yl)-1H-pyrazolo[3,4-b]pyridine-6-carboxamide] | 280% | 241 nM | 99.6% | 141 nM |
| CC(C)c1nn(C2CCCCC2)c2nc(C(=O)NS(C)(=O)=O)cc(-c3ccc(N4CCCC(F)C4)nc3)c12 (stereo not shown) [Compound 108, 1-cyclohexyl-4-[6-(3-fluoropiperidin-1-yl)pyridin-3-yl]-N-(methanesulfonyl)-3-(propan-2-yl)-1H-pyrazolo[3,4-b]pyridine-6-carboxamide] | 428.3% | 509 nM | 218.05% | 561 nM |
| O=C(NS(=O)(=O)C1CC1)c1cc(N2CCC(CN3CCCC3)CC2)c2c(C3CCC3)nn(-c3ccccc3)c2n1 [Compound 462, 3-cyclobutyl-N-(cyclopropanesulfonyl)-1-phenyl-4-{4-[(pyrrolidin-1-yl)methyl]piperidin-1-yl}-1H-pyrazolo[3,4-b]pyridine-6-carboxamide] | 495.1% | 107 nM | 317.4% | 776 nM |
| COCCS(=O)(=O)NC(=O)c1cc(-c2ccc(N3CCC(C#N)CC3)nc2)c2c(n1)n(-c1ccccc1)nc2[C@H]1C[C@H](C)C1 [Compound 276, 4-[6-(4-cyanopiperidin-1-yl)pyridin-3-yl]-N-(2-methoxyethanesulfonyl)-3-(trans-3-methylcyclobutyl)-1-phenyl-1H-pyrazolo[3,4-b]pyridine-6-carboxamide] | 417.25% | 42.9 nM | 356.7% | 779 nM |
| CN(C)S(=O)(=O)NC(=O)c1cc(C2CCN(CC3CCOCC3)CC2)c2c(C3CCC3)nn(-c3ccc(F)cc3)c2n1 [Compound 601, 3-cyclobutyl-N-(dimethylsulfamoyl)-1-(4-fluorophenyl)-4-{1-[(oxan-4-yl)methyl]piperidin-4-yl}-1H-pyrazolo[3,4-b]pyridine-6-carboxamide] | 273.9% | 625 nM | 112% | 2180 nM |
| CCS(=O)(=O)NC(=O)c1cc(N2CCC(N3CCOCC3)CC2)c2c(C3CCC3)nn(-c3ccc(F)cc3)c2n1 [Compound 466, 3-cyclobutyl-N-(ethanesulfonyl)-1-(4-fluorophenyl)-4-[4-(morpholin-4-yl)piperidin-1-yl]-1H-pyrazolo[3,4-b]pyridine-6-carboxamide] | 522.47% | 64.1 nM | 318.7% | 176 nM |
| CC(C)c1nn(-c2ccc(F)cc2)c2nc(C(=O)NS(C)(=O)=O)cc(OCCN(C(C)C)C3COC3)c12 [Compound 309, 1-(4-fluorophenyl)-N-(methanesulfonyl)-4-{2-[(oxetan-3-yl)(propan-2-yl)amino]ethoxy}-3-(propan-2-yl)-1H-pyrazolo[3,4-b]pyridine-6-carboxamide] | 303.6% | 224 nM | 149% | 444 nM |
| COc1ccc(-c2cc(C(=O)NS(C)(=O)=O)nc3c2c(C)nn3-c2ccc(C)c(Cl)c2)cc1 [Compound 18, 1-(3-chloro-4-methylphenyl)-N-(methanesulfonyl)-4-(4-methoxyphenyl)-3-methyl-1H-pyrazolo[3,4-b]pyridine-6-carboxamide] | 217.8% | 1110 nM | 64.675% | 2270 nM |
| CC(C)c1nn(-c2ccc(F)cc2)c2nc(C(=O)NS(C)(=O)=O)cc(OCC3(C)COC3)c12 [Compound 293, 1-(4-fluorophenyl)-N-(methanesulfonyl)-4-[(3-methyloxetan-3-yl)methoxy]-3-(propan-2-yl)-1H-pyrazolo[3,4-b]pyridine-6-carboxamide] | 317.1% | 480 nM | 113.3% | 622 nM |
| CCS(=O)(=O)NC(=O)c1cc(-c2cnc(N3CCOCC3)nc2)c2c(C(C)C)nn(-c3cccc(N(C)C)c3)c2n1 [Compound 62, 1-[3-(dimethylamino)phenyl]-N-(ethanesulfonyl)-4-[2-(morpholin-4-yl)pyrimidin-5-yl]-3-(propan-2-yl)-1H-pyrazolo[3,4-b]pyridine-6-carboxamide] | 631.2% | 532 nM | 350.85% | 596 nM |
